From PubChem BioAssay (NCI)
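Cultured in 96-well plates, cells were exposed to test compound for 48 hours across five concentrations. GI50 = concentration required for 50% inhibition of growth. Definition used: TGI = concentration required for complete inhibition of growth.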

Tests used:
Experiment in all cases: NCI anticancer screen, dose series, 48 h
UACC-257 melanoma = test system: UACC-257 melanoma
TK-10 renal = test system: TK-10 renal
M14 melanoma = test system: M14 melanoma
RPMI-8226 leukemia = test system: RPMI-8226 leukemia
SK-MEL-5 melanoma = test system: SK-MEL-5 melanoma
SK-MEL-28 melanoma = test system: SK-MEL-28 melanoma
MOLT-4 leukemia = test system: MOLT-4 leukemia
NCI-H460 lung = test system: NCI-H460 lung
RXF 393 renal = test system: RXF 393 renal
CAKI-1 renal = test system: CAKI-1 renal

Row | SMILES | GI50 (UACC-257 melanoma) [µM] | TGI (UACC-257 melanoma) [µM] | GI50 (TK-10 renal) [µM] | TGI (TK-10 renal) [µM] | GI50 (M14 melanoma) [µM] | TGI (M14 melanoma) [µM] | GI50 (RPMI-8226 leukemia) [µM] | TGI (RPMI-8226 leukemia) [µM] | GI50 (SK-MEL-5 melanoma) [µM] | TGI (SK-MEL-5 melanoma) [µM] | GI50 (SK-MEL-28 melanoma) [µM] | TGI (SK-MEL-28 melanoma) [µM] | GI50 (MOLT-4 leukemia) [µM] | TGI (MOLT-4 leukemia) [µM] | GI50 (NCI-H460 lung) [µM] | TGI (NCI-H460 lung) [µM] | GI50 (RXF 393 renal) [µM] | TGI (RXF 393 renal) [µM] | GI50 (CAKI-1 renal) [µM] | TGI (CAKI-1 renal) [µM]
1 | Cc1cc(N2CCOCC2)nc(N(CCCNc2ccnc3cc(Cl)ccc23)Cc2ccco2)n1 | 2.73 | 7.33 | 3.3 | 12.3 | 1.86 | 4.22 | 2.13 | 6.33 | 1.82 | 3.65 | 2.29 | 6.66 | 3.02 | 13.1 | 3.28 | 13.7 | 1.69 | 4.43 |  | 
2 | OCCNc1nc(Nc2ccc(Cl)c(Cl)c2)nc2ccccc12 | 11.1 | 23.1 | 14.3 | 27.9 |  |  | 3.74 | 22.1 | 4.75 | 17.7 | 6.38 | 20.7 | 1.87 | 13.2 | 3.71 | 16.5 | 4.45 | 18.4 | 4.66 | 18.2
3 | CC1(N)CCN(c2cnc(-c3cccc(Cl)c3Cl)c(N)n2)CC1 | 17 | 35.2 | 2.8 | 53.2 | 16.4 | 33.2 | 13.8 | 40.1 | 15.2 | 28.6 | 16.3 | 32.3 | 22.7 | 99.3 | 32.7 | > 100 |  |  | 14.8 | > 100
4 | O=C(Nc1cccc(Cl)c1)c1cccc(NC2=C(Cl)C(=O)N(Cc3ccccc3)C2=O)c1 | 72.5 | > 100 |  |  | 18.3 | 67.3 | 7.58 | 53.3 | 34 | > 100 | > 100 | > 100 | 22.2 | > 100 | 37 | > 100 | 85 | > 100 | 15 | 49.1
5 | CO/N=C(\COc1ccc2oc(-c3ccccc3)cc(=O)c2c1)c1ccc(OC)cc1 | 23.4 | 63.3 | 41.4 | > 100 | 21.4 | 49.2 | 27.9 | 81.9 | 22.2 | 46.7 | 30.7 | > 100 |  |  |  |  | 29 | 97.5 | 22.7 | 69.2
6 | O=NNc1ccc(Sc2ccc(NN=O)cn2)nc1 |  | > 100 |  | > 100 |  | > 100 |  |  |  | > 100 |  | > 100 |  | > 100 |  | > 100 |  |  |  | > 100
7 | CC(C)(C)c1ccc(OCCOCCOc2ccc(C(C)(C)C)cc2S(=O)(=O)Nc2ccc([N+](=O)[O-])cc2)c(S(=O)(=O)Nc2ccc([N+](=O)[O-])cc2)c1 |  | > 100 |  | > 100 |  | > 100 |  |  |  | > 100 |  | > 100 |  | 43.9 |  | > 100 |  | > 100 |  | > 100
8 | CC(C(N)C(=O)NC(C(=O)O)C1OC(n2ccc(=O)[nH]c2=O)C(O)C1O)C(O)c1ccc(O)cn1 (stereo not drawn) |  | > 100 |  | > 100 |  | > 100 |  | > 100 |  | > 100 |  | > 100 |  | > 100 |  | > 100 |  |  |  | > 100
9 | O=C(NO)[C@@H](Cc1ccccc1)NS(=O)(=O)c1ccc(-c2ccccc2)cc1 | > 25 | > 25 | 19.1 | > 25 | > 25 | > 25 |  |  | 20.6 | > 25 | > 25 | > 25 | 9.43 | > 25 | 13.6 | > 25 |  |  | 9.6 | > 25
10 | CC(=O)O[C@H](C[C@H](C(C)C)N(C)C(=O)[C@@H](NC(=O)[C@H]1CCCN1C)C(C)C)c1nc(C(=O)N[C@@H](Cc2ccccc2)C[C@H](C)C(=O)O)c(C)s1 | > 16.7 | > 16.7 | > 16.7 | > 16.7 | < 0.00167 | > 16.7 | < 0.00167 | > 16.7 | < 0.00167 | 0.0243 | 0.00557 | > 16.7 | < 0.00167 | > 16.7 | < 0.00167 | > 16.7 | < 0.00167 | > 16.7 |  | 
11 | Nc1n[n+](-c2ccccc2)no1 |  | > 100 |  | > 100 |  | > 100 |  | > 100 |  | > 100 |  |  |  | > 100 |  | > 100 |  |  |  | > 100
12 | COc1ccc2oc(C(=O)O)c3c2c1CCC3CCC(=O)O (stereo not drawn) |  | > 100 |  | > 100 |  | > 1 |  | > 100 |  | > 100 |  | > 100 |  | > 100 |  | > 100 |  | > 100 |  | 
13 | C/C=C(\CCOS(=O)(=O)c1ccc(C)cc1)[Si](C)(C)C |  | > 100 |  | > 100 |  | > 100 |  | > 100 |  | > 100 |  | > 100 |  | > 100 |  | > 100 |  | > 100 |  | 
14 | Cc1cccc2c1CCC21OC(=O)c2c1ccc1ccccc21 (stereo not drawn) |  | 85.5 |  | > 100 |  | 64.8 |  |  |  | 46 |  | > 100 |  | 79.8 |  | > 100 |  | > 100 |  | > 100
15 | C/C(=N\NC(=S)SCc1ccccc1)c1ccccn1 |  | 1.42 |  | 13.5 |  | 6.44 |  | 1.97 |  | 5.56 |  |  |  |  |  | 10.6 |  | 3.03 |  | 4.93
16 | CCOC(=O)c1cnc2c(ccc3ncccc32)c1NCCCN(CC)CC |  | > 100 |  | > 100 |  | 35.1 |  | > 100 |  | > 100 |  | > 100 |  | 72.2 |  | > 100 |  |  |  | > 100
17 | CC(=O)[CH-]C(=O)c1ccccc1.CC(=O)[CH-]C(=O)c1ccccc1.Cc1cc([O-])ccc1Cl.Cc1cc([O-])ccc1Cl.[Ti+4] | 27.1 | 92.4 |  |  | 23.1 | 52.5 | 19.2 | 55.3 | 19.3 | 44.9 | 34.7 | > 100 | 15.5 | 54 | 22.6 | > 100 | 26 | 62.8 | 19.5 | 60.1
